Results as given in patent publication US8507540B2, “Oxazolidinone derivatives containing new bicyclic group, having antibacterial activity, and method for treating pathogenic bacterial infections using the same” (Korean Institute of Science and Technology, priority 2011, dated 2013).
Values after ≈ are worked out from the molar mass of the structure shown.

How the values were obtained:
[1] = tested on: Mycobacterium tuberculosis (Mtb) H37Rv; experiment: In vitro antituberculous activity test, Microplate Alamar Blue Assay; format: cell-based; conditions: versus linezolid
[2] = tested on: Staphylococcus aureus, methicillin resistant; experiment: In vitro antibacterial activity test, Agar Dilution MIC; conditions: 18 h
[3] = tested on: Staphylococcus aureus, methicillin susceptible; experiment: as above; conditions: 18 h
[4] = tested on: Coagulase negative staphylococci, methicillin resistant; experiment: as above; conditions: 18 h
[5] = tested on: Coagulase negative staphylococci, methicillin susceptible; experiment: as above; conditions: 18 h
[6] = tested on: Enterococcus faecalis, vancomycin resistant; experiment: as above; conditions: 18 h
[7] = tested on: Enterococcus faecalis, vancomycin susceptible; experiment: as above; conditions: 18 h
[8] = tested on: Enterococcus faecium, vancomycin resistant; experiment: as above; conditions: 18 h
[9] = tested on: Enterococcus faecium, vancomycin susceptible; experiment: as above; conditions: 18 h
[10] = tested on: Staphylococcus pneumoniae, penicillin non-susceptible; experiment: as above; conditions: 18 h
[11] = tested on: Staphylococcus pneumoniae, penicillin susceptible; experiment: as above; conditions: 18 h
[12] = tested on: Staphylococcus pyogenes; experiment: as above; conditions: Staphylococcus aureus, 18 h
[13] = tested on: Staphylococcus agalactiae; experiment: as above; conditions: 18 h
[14] = tested on: Haemophilus influenzae, beta-lactamase-positive; experiment: as above; conditions: 18 h
[15] = tested on: MRSA and other gram positive bacteria; Staphylococcus sp., Enterococcus sp. and Haemophilus influenza; experiment: In vitro antibacterial activity test, overall statements on the strain panel; conditions: various strains of Table 1
[16] = target: CYP3A4 (Homo sapiens, UniProt P08684); experiment: CYP450 remaining test (Vivid CYP450 Screening Kits)
Procedure: (§1) CYP450 remaining test was conducted using Vivid® CYP450 Screening Kits Protocol (Invitrogen), and hERG assay for cardiac toxicity test was conducted using an automated patch-clamp device, NPC-16 Patchliner (Nanion Technologies, Munchen, Germany) according to the method of C. Farre, et al. (Combinatorial Chemistry & High Throughput Screening, 2009, 12, 24-37). And, human hepatic microsomal stability test was conducted according to the method of W. A. Korfmacher, et al. (Rapid Commun. Mass Spectrom. 13, 901-907 (1999)).

[17] = target: CYP2D6 (Homo sapiens, UniProt P10635); experiment: as above
Procedure: as §1

[18] = target: CYP2C9 (Homo sapiens, UniProt P11712); experiment: as above
Chain of CYP2C9 (P11712 whole entry): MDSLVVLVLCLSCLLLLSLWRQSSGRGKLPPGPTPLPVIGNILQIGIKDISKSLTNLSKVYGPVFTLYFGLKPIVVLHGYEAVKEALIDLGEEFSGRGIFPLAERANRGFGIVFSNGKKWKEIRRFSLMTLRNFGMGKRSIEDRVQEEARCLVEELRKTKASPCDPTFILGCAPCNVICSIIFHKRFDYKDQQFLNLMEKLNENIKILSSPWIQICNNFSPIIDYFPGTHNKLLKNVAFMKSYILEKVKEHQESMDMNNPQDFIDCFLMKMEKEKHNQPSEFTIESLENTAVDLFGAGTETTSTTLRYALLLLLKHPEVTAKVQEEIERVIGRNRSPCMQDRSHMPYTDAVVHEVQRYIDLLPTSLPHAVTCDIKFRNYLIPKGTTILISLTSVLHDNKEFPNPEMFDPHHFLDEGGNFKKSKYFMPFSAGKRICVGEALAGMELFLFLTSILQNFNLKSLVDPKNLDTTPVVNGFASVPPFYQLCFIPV

Chain of CYP2D6 (P10635 whole entry): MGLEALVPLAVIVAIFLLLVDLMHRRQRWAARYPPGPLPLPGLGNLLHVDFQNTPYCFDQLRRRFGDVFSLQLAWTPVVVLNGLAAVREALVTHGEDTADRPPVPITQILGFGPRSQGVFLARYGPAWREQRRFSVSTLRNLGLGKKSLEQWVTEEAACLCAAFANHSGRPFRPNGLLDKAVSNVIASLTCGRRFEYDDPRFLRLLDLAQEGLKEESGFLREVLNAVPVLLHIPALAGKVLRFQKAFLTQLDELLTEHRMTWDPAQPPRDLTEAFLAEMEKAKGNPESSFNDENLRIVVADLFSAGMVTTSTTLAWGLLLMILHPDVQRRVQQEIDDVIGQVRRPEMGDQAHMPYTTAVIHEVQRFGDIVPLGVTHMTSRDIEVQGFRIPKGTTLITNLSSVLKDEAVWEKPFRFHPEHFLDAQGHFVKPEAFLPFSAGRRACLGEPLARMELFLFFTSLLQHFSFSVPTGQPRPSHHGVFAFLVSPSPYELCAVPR
Chain of CYP3A4 (P08684 whole entry): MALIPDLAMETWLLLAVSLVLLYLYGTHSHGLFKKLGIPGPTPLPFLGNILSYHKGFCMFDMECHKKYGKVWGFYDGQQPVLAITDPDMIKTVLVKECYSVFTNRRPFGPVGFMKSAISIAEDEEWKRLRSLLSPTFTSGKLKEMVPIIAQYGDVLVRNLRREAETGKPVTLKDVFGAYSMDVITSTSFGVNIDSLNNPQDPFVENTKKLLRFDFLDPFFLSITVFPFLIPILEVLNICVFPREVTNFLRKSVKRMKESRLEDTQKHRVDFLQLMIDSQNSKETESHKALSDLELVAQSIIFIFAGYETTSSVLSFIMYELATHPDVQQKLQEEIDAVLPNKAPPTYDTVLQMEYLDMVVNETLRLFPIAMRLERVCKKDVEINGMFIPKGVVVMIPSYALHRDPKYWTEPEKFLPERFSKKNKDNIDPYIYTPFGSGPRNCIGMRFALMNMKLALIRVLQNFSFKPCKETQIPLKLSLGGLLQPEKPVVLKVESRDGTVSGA

CC(=O)NC[C@H]1CN(c2ccc(N3CC4CC(=CC#N)CC4C3)c(F)c2)C(=O)O1 (stereo partly drawn) [Example 1, N-[[(5S)-3-[4-(5-cyanomethylene-hexahydro-cyclopenta[c]pyrrol-2-yl)-3-fluorophenyl]-2-oxo-5-oxazolidinyl]methyl]acetamide]
antituberculous activity compared to linezolid [1]: antibacterial effects equivalent to linezolid | MIC [2]: 3.1 µg/mL (≈ 7.78 µM) | MIC [3]: 3.1 µg/mL (≈ 7.78 µM) | MIC [4]: 3.1 µg/mL (≈ 7.78 µM) | MIC [5]: 3.1 µg/mL (≈ 7.78 µM) | MIC [6]: 1.5 µg/mL (≈ 3.76 µM) | MIC [7]: 1.5 µg/mL (≈ 3.76 µM) | MIC [8]: 1.5 µg/mL (≈ 3.76 µM) | MIC [9]: 0.7 µg/mL (≈ 1.76 µM) | MIC [10]: 0.7 µg/mL (≈ 1.76 µM) | MIC [11]: 0.7 µg/mL (≈ 1.76 µM) | MIC [12]: 0.7 µg/mL (≈ 1.76 µM) | MIC [13]: 1.5 µg/mL (≈ 3.76 µM) | MIC [14]: 0.7 µg/mL (≈ 1.76 µM)

CC(=O)NC[C@H]1CN(c2ccc(N3CC4C=C(CC#N)CC4C3)c(F)c2)C(=O)O1 (stereo partly drawn) [Example 2, N-[[(5S)-3-[4-(5-cyanomethyl-3,3a,4,6a-tetrahydro-1H-cyclopenta[c]pyrrol-2-yl)-3-fluorophenyl]-2-oxo-5-oxazolidinyl]methyl]acetamide]
antituberculous activity compared to linezolid [1]: antibacterial effects equivalent to linezolid | MIC [2]: 1.5 µg/mL (≈ 3.76 µM) | MIC [3]: 3.1 µg/mL (≈ 7.78 µM) | MIC [4]: 3.1 µg/mL (≈ 7.78 µM) | MIC [5]: 3.1 µg/mL (≈ 7.78 µM) | MIC [6]: 3.1 µg/mL (≈ 7.78 µM) | MIC [7]: 1.5 µg/mL (≈ 3.76 µM) | MIC [8]: 1.5 µg/mL (≈ 3.76 µM) | MIC [9]: 1.5 µg/mL (≈ 3.76 µM) | MIC [10]: 0.7 µg/mL (≈ 1.76 µM) | MIC [11]: 0.7 µg/mL (≈ 1.76 µM) | MIC [12]: 0.7 µg/mL (≈ 1.76 µM) | MIC [13]: 1.5 µg/mL (≈ 3.76 µM) | MIC [14]: 1.5 µg/mL (≈ 3.76 µM) | antibacterial activity against the strain panel [15]: high antibacterial activities

CC(=O)NC[C@H]1CN(c2ccc(N3CC4C=C(C#N)CC4C3)c(F)c2)C(=O)O1 (stereo partly drawn) [Example 3, N-[[(5S)-3-[4-(5-cyano-3,3a,4,6a-tetrahydro-1H-cyclopenta[c]pyrrol-2-yl)-3-fluorophenyl]-2-oxo-5-oxazolidinyl]methyl]acetamide]
antituberculous activity compared to linezolid [1]: more excellent antibacterial activities than linezolid | MIC [2]: 1.5 µg/mL (≈ 3.9 µM) | MIC [3]: 3.1 µg/mL (≈ 8.06 µM) | MIC [4]: 3.1 µg/mL (≈ 8.06 µM) | MIC [5]: 3.1 µg/mL (≈ 8.06 µM) | MIC [6]: 3.1 µg/mL (≈ 8.06 µM) | MIC [7]: 3.1 µg/mL (≈ 8.06 µM) | MIC [8]: 1.5 µg/mL (≈ 3.9 µM) | MIC [9]: 1.5 µg/mL (≈ 3.9 µM) | MIC [10]: 0.3 µg/mL (≈ 0.78 µM) | MIC [11]: 0.7 µg/mL (≈ 1.82 µM) | MIC [12]: 0.7 µg/mL (≈ 1.82 µM) | MIC [13]: 1.5 µg/mL (≈ 3.9 µM) | MIC [14]: 0.3 µg/mL (≈ 0.78 µM) | antibacterial activity against the strain panel [15]: high antibacterial activities

O=C1O[C@@H](Cn2ccnn2)CN1c1ccc(N2CC3CC(=NO)CC3C2)c(F)c1 (stereo partly drawn) [Example 5, (5R)-3-[3-fluoro-4-(5-hydroxyimino-hexahydro-cyclopenta[c]pyrrol-2-yl)phenyl]-5-(1,2,3-triazol-1-ylmethyl)oxazolidin-2-one]
MIC [2]: 6.2 µg/mL (≈ 15.5 µM) | MIC [3]: 6.2 µg/mL (≈ 15.5 µM) | MIC [4]: 6.2 µg/mL (≈ 15.5 µM) | MIC [5]: 6.2 µg/mL (≈ 15.5 µM) | MIC [6]: 6.2 µg/mL (≈ 15.5 µM) | MIC [7]: 6.2 µg/mL (≈ 15.5 µM) | MIC [8]: 6.2 µg/mL (≈ 15.5 µM) | MIC [9]: 3.1 µg/mL (≈ 7.74 µM) | MIC [10]: 0.7 µg/mL (≈ 1.75 µM) | MIC [11]: 1.5 µg/mL (≈ 3.75 µM) | MIC [12]: 0.7 µg/mL (≈ 1.75 µM) | MIC [13]: 1.5 µg/mL (≈ 3.75 µM) | MIC [14]: 3.1 µg/mL (≈ 7.74 µM)

CON=C1CC2CN(c3ccc(N4C[C@H](Cn5ccnn5)OC4=O)cc3F)CC2C1 (stereo partly drawn) [Example 6, (5R)-3-[3-fluoro-4-(5-methoxyimino-hexahydro-cyclopenta[c]pyrrol-2-yl)phenyl]-5-(1,2,3-triazol-1-ylmethyl)oxazolidin-2-one]
antituberculous activity compared to linezolid [1]: antibacterial effects equivalent to linezolid | MIC [2]: 6.2 µg/mL (≈ 15 µM) | MIC [3]: 6.2 µg/mL (≈ 15 µM) | MIC [4]: 6.2 µg/mL (≈ 15 µM) | MIC [5]: 6.2 µg/mL (≈ 15 µM) | MIC [6]: 3.1 µg/mL (≈ 7.48 µM) | MIC [7]: 1.5 µg/mL (≈ 3.62 µM) | MIC [8]: 1.5 µg/mL (≈ 3.62 µM) | MIC [9]: 1.5 µg/mL (≈ 3.62 µM) | MIC [10]: 0.1 µg/mL (≈ 0.241 µM) | MIC [11]: 0.3 µg/mL (≈ 0.724 µM) | MIC [12]: 0.1 µg/mL (≈ 0.241 µM) | MIC [13]: 0.3 µg/mL (≈ 0.724 µM) | MIC [14]: 0.3 µg/mL (≈ 0.724 µM)

N#CC=C1CC2CN(c3ccc(N4C[C@H](Cn5ccnn5)OC4=O)cc3F)CC2C1 (stereo partly drawn) [Example 7, (5R)-3-[4-(5-cyanomethylene-hexahydro-cyclopenta[c]pyrrol-2-yl)-3-fluorophenyl]-5-(1,2,3-triazol-1-ylmethyl)oxazolidin-2-one]
antituberculous activity compared to linezolid [1]: antibacterial effects equivalent to linezolid | MIC [2]: 0.7 µg/mL (≈ 1.71 µM) | MIC [3]: 1.5 µg/mL (≈ 3.67 µM) | MIC [4]: 1.5 µg/mL (≈ 3.67 µM) | MIC [5]: 1.5 µg/mL (≈ 3.67 µM) | MIC [6]: 3.1 µg/mL (≈ 7.59 µM) | MIC [7]: 1.5 µg/mL (≈ 3.67 µM) | MIC [8]: 1.5 µg/mL (≈ 3.67 µM) | MIC [9]: 1.5 µg/mL (≈ 3.67 µM) | MIC [10]: 0.3 µg/mL (≈ 0.735 µM) | MIC [11]: 0.7 µg/mL (≈ 1.71 µM) | MIC [12]: 0.3 µg/mL (≈ 0.735 µM) | MIC [13]: 0.7 µg/mL (≈ 1.71 µM) | MIC [14]: 0.3 µg/mL (≈ 0.735 µM) | antibacterial activity against the strain panel [15]: high antibacterial activities

N#CCC1=CC2CN(c3ccc(N4C[C@H](Cn5ccnn5)OC4=O)cc3F)CC2C1 (stereo partly drawn) [Example 8, (5R)-3-[4-(5-cyanomethyl-3,3a,4,6a-tetrahydro-1H-cyclopenta[c]pyrrol-2-yl)-3-fluorophenyl]-5-(1,2,3-triazol-1-ylmethyl)oxazolidin-2-one]
MIC [2]: 1.5 µg/mL (≈ 3.67 µM) | MIC [3]: 6.2 µg/mL (≈ 15.2 µM) | MIC [4]: 6.2 µg/mL (≈ 15.2 µM) | MIC [5]: 6.2 µg/mL (≈ 15.2 µM) | MIC [6]: 6.2 µg/mL (≈ 15.2 µM) | MIC [7]: 6.2 µg/mL (≈ 15.2 µM) | MIC [8]: 6.2 µg/mL (≈ 15.2 µM) | MIC [9]: 6.2 µg/mL (≈ 15.2 µM) | MIC [10]: 1.5 µg/mL (≈ 3.67 µM) | MIC [11]: 3.1 µg/mL (≈ 7.59 µM) | MIC [12]: 1.5 µg/mL (≈ 3.67 µM) | MIC [13]: 3.1 µg/mL (≈ 7.59 µM) | MIC [14]: 1.5 µg/mL (≈ 3.67 µM)

N#CC1=CC2CN(c3ccc(N4C[C@H](Cn5ccnn5)OC4=O)cc3F)CC2C1 (stereo partly drawn) [Example 9, (5R)-3-[4-(5-cyano-3,3a,4,6a-tetrahydro-1H-cyclopenta[c]pyrrol-2-yl)-3-fluorophenyl]-5-(1,2,3-triazol-1-ylmethyl)oxazolidin-2-one]
MIC [2]: 1.5 µg/mL (≈ 3.8 µM) | MIC [3]: 3.1 µg/mL (≈ 7.86 µM) | MIC [4]: 3.1 µg/mL (≈ 7.86 µM) | MIC [5]: 3.1 µg/mL (≈ 7.86 µM) | MIC [6]: 3.1 µg/mL (≈ 7.86 µM) | MIC [7]: 3.1 µg/mL (≈ 7.86 µM) | MIC [8]: 3.1 µg/mL (≈ 7.86 µM) | MIC [9]: 3.1 µg/mL (≈ 7.86 µM) | MIC [10]: 0.7 µg/mL (≈ 1.77 µM) | MIC [11]: 1.5 µg/mL (≈ 3.8 µM) | MIC [12]: 0.7 µg/mL (≈ 1.77 µM) | MIC [13]: 1.5 µg/mL (≈ 3.8 µM) | MIC [14]: 0.7 µg/mL (≈ 1.77 µM)

CC(=O)NC[C@H]1CN(c2ccc(N3CCOCC3)c(F)c2)C(=O)O1 [LZD, linezolid, reference compound]
MIC [2]: 3.1 µg/mL (≈ 9.19 µM) | MIC [3]: 3.1 µg/mL (≈ 9.19 µM) | MIC [4]: 3.1 µg/mL (≈ 9.19 µM) | MIC [5]: 3.1 µg/mL (≈ 9.19 µM) | MIC [6]: 1.5 µg/mL (≈ 4.45 µM) | MIC [7]: 1.5 µg/mL (≈ 4.45 µM) | MIC [8]: 1.5 µg/mL (≈ 4.45 µM) | MIC [9]: 1.5 µg/mL (≈ 4.45 µM) | MIC [10]: 0.7 µg/mL (≈ 2.07 µM) | MIC [11]: 0.7 µg/mL (≈ 2.07 µM) | MIC [12]: 0.7 µg/mL (≈ 2.07 µM) | MIC [13]: 1.5 µg/mL (≈ 4.45 µM) | MIC [14]: 0.7 µg/mL (≈ 2.07 µM)

CC(=O)N1CCN(c2ccc(OCC3COC(Cn4ccnc4)(c4ccc(Cl)cc4Cl)O3)cc2)CC1 (centres unmarked) [ketoconazole, reference compound]
activity [16]: 2.3%

C=C[C@H]1C[N@@]2CC[C@H]1C[C@@H]2[C@@H](O)c1ccnc2ccc(OC)cc12 [quinidine, reference compound]
activity [17]: 11.1%

Nc1ccc(S(=O)(=O)Nc2ccnn2-c2ccccc2)cc1 [sulfaphenazol, reference compound]
activity [18]: -3.5%
